Values after ≈ are worked out from the molar mass of the structure shown. Peptide text beside a SMILES is read from it. * marks the point of attachment. Stearoyl = CCCCCCCCCCCCCCCCCC(=O)*; Palmitoyl = CCCCCCCCCCCCCCCC(=O)*; Myristoyl = CCCCCCCCCCCCCC(=O)*; Lauroyl = CCCCCCCCCCCC(=O)*; Decanoyl = CCCCCCCCCC(=O)*; Octanoyl = CCCCCCCC(=O)*
How the values were obtained:
[1] = test system: Acinetobacter bohemicus (DSM 100419); assay: Minimal inhibitory concentration (MIC), broth microdilution; format: cell-based; design: key to MIC value: MIC in μg/mL (lowest concentration without visible growth); details: 30 ± 1 °C; for MIC value: Table S2, n=3, no unit given (main text uses µg/mL); for MIC: broth microdilution, cation-adjusted MHB II, 5 × 10^5 cfu/mL, read after 18 to 20 h, n = 3
Procedure: (§1) Minimal inhibitory concentrations (MICs) were determined against Gram-positive Enterococcus faecium vanA (UL 602570*, clinical isolate from Institute for Medical Microbiology and Hygiene, Heidelberg University Hospital, Heidelberg, Germany), Staphylococcus aureus (ATCC 25923), Rothia kristinae (DSM 20032), and Gram-negative Acinetobacter bohemicus (DSM 100419) (all obtained from the Department of Infectious Diseases, Medical Microbiology and Hygiene, Heidelberg University, Heidelberg, Germany) in a 96-well polypropylene plate (650261 Greiner Bio-One GmbH, Frickenhausen, Germany) according to European Committee on Antimicrobial Susceptibility Testing (EUCAST) and The Clinical & Laboratory Standards Institute (CLSI) guidelines. Briefly, the stock solutions of the peptide conjugates in water were adjusted to a concentration of 1.28 mg/mL. Starting with the highest concentration of 64 μg/mL in 96-well polypropylene plates, dilution series in cation-adjusted Mueller–Hinton broth (MHB II; Sigma Aldrich, Steinheim, Germany) were performed, resulting in the lowest concentration of 0.125 μg/mL. A logarithmic growing bacterial culture was adjusted to a McFarland corresponding to 1 × 10^8 cfu/mL using a McFarland counter (DensiCHEK® plus, bioMerieux, Marcy-l’Étoile, France). Finally, a bacterial suspension of 1 × 10^6 cfu/mL (further diluted in MHB II) was added to each peptide-conjugate concentration. Thus, the final bacterial concentration in each well was 5 × 10^5 cfu/mL. The bacteria were incubated at 37 ± 1 °C (for A. bohemicus: 30 ± 1 °C) overnight and the bacterial growth was analyzed after 18 to 20 h. The MIC was defined as the lowest concentration of substance without any visible growth. Vancomycin and colistin sulfate were purchased from Sigma-Aldrich Chemie GmbH, München, Germany and Carl Roth GmbH, Karlsruhe, Germany.

[2] = test system: Staphylococcus aureus (ATCC 25923); assay: as above; format: cell-based; details: cation-adjusted MHB II, 5 × 10^5 cfu/mL, 37 ± 1 °C, read after 18 to 20 h, n = 3
Procedure: as §1

[3] = test system: Acinetobacter bohemicus (DSM 100419); assay: Minimal bactericidal concentration (MBC); format: cell-based; details: Table S2, n=3; unit inferred; lowest concentration killing 99.9% of the inoculum; agar 24 h, 30 ± 1 °C
Procedure: (§2) Minimal bactericidal concentrations (MBCs) were determined by pipetting 3 µL of each broth dilution solution without visible growth onto a new agar plate. The agar plates were incubated at 37 ± 1 °C (for A. bohemicus: 30 ± 1 °C) for 24 h and were again analyzed with respect to bacterial growth. MBC is defined as the lowest concentration killing 99.9% of the inoculum.

[4] = test system: Rothia kristinae (DSM 20032); assay: Time-kill studies; format: cell-based; details: for change in number of cfu/mL: 0.5 × MIC, 0 to 8 h
Procedure: Time–kill studies were performed in accordance with CLSI guidelines. Therefore, Rothia kristinae DSM 20032 was adjusted to a concentration of 1 x 10^8 cfu/mL and further diluted to 1 × 10^6 cfu/mL in cation-adjusted MHB II. According to the previous determined MIC values of Pep19-4LF, C11-Pep19-4LF, and bacitracin (positive control) (Sigma Aldrich Chemie GmbH, München, Germany), samples were taken for 4 × MIC, 2 × MIC, 1 × MIC, and 0.5 × MIC after 30 min, 1 h, 2 h, 4 h, and 8 h. These samples were diluted in sterile saline and 10 µL of each sample was loaded onto agar plates. A bacterial suspension of 1 × 10^6 cfu/mL served as a growth control. Incubation occurred at 37 ± 1 °C and all counted colonies were recalculated to the colony number in the original inoculum.

[5] = test system: Rothia kristinae (DSM 20032); assay: Minimal inhibitory concentration (MIC), broth microdilution; format: cell-based; details: Table 3 of supplement, n=3; unit inferred; 37 ± 1 °C
Procedure: as §1

[6] = rat, in vivo, iv
Procedure: For this purpose, the tyrosine residues of the peptides were radiolabeled with ^125I (Hartmann Analytic GmbH, Braunschweig, Germany) using the chloramine-T method [28]. Free ^125I was separated by preparative HPLC as previously described by Schieck et al. [22]. Approximately 2 to 4 MBq of the radiolabeled peptides was injected intravenously into the tail vein and images were recorded immediately post injection and after 1 h, 2 h, 3 h, 5 h, and 24 h. Scintigraphical images were obtained by using a γ-camera (Gamma Imager, Biospace Lab, Paris, France).

[7] = format: physicochemical
Excerpt: The high MIC value of Pep19-short indicates the importance of a hydrophobic moiety for this synthetic antimicrobial peptide. […] If the length of the fatty acid is too short, the interaction between the peptide conjugate and components of the bacterial cell membrane might be unfavorable, thus leading to loss of efficiency. Fatty acids of medium chain length enable a stable plateau of low MIC values, indicating a more efficient interaction between the peptide conjugate and bacterial cells. […] A detailed interaction between Pep19 peptides and membrane-bound toxins was previously described by Correa et al.. […] A hypothesized mechanism for this interaction represents the reorganization of the bacterial membrane leading in an inability to maintain the osmotic pressure. Here, the positively-charged amino acids of the peptide conjugate might interact with the negatively-charged compounds of the bacterial cell wall and the hydrophobic part interacts with hydrophobic lipids of the bacterial membrane. Several mechanisms for a membrane disruption by amphiphilic peptides were further described by Sato and Feix. With respect to the parent peptide Pep19-4LF, the hydrophobic moiety was located at the C-terminus. As the synthesis leads to peptides that are linked to the resin via their C-terminus, the fatty acids were linked to the free N-terminus of the peptide. […]

[8] = test system: Rothia kristinae (DSM 20032); assay: Minimal bactericidal concentration (MBC); format: cell-based; details: Table 3 of supplement, n=3; unit inferred; lowest concentration killing 99.9% of the inoculum; agar 24 h, 37 ± 1 °C
Procedure: as §2

[9] = test system: Enterococcus faecium (UL602570*, clinical isolate, vanA-resistant); assay: Minimal inhibitory concentration (MIC), broth microdilution; format: cell-based; details: cation-adjusted MHB II, 5 × 10^5 cfu/mL, 37 ± 1 °C, read after 18 to 20 h, n = 3
Procedure: as §1

[10] = 4 × MIC, 1 × 10^6 cfu/mL in MHB II, 37 °C, n = 3

## CCCCCCCCCCCCCCCC(=O)NCC(=O)N[C@@H](CCCCN)C(=O)N[C@@H](CCCCN)C(=O)N[C@@H](Cc1ccc(O)cc1)C(=O)N[C@@H](CCCNC(=N)N)C(=O)N[C@@H](CCCNC(=N)N)C(=O)N[C@@H](Cc1ccccc1)C(=O)N[C@@H](CCCNC(=N)N)C(=O)N[C@@H](Cc1c[nH]c2ccccc12)C(=O)N[C@@H](CCCCN)C(=O)N[C@@H](Cc1ccccc1)C(=O)N[C@@H](CCCCN)C(=O)NCC(=O)N[C@@H](CCCCN)C(N)=O [C16-Pep19-short] (Palmitoyl-GKKYRRFRWKFKGK-NH2)
[1]
  MIC value: > 64
  MIC: higher MIC values
[2]
  MIC: higher MIC values
[3]
  MBC value: > 64 µg/mL

## CCCCCCCCCCCC(=O)NCC(=O)N[C@@H](CCCCN)C(=O)N[C@@H](CCCCN)C(=O)N[C@@H](Cc1ccc(O)cc1)C(=O)N[C@@H](CCCNC(=N)N)C(=O)N[C@@H](CCCNC(=N)N)C(=O)N[C@@H](Cc1ccccc1)C(=O)N[C@@H](CCCNC(=N)N)C(=O)N[C@@H](Cc1c[nH]c2ccccc12)C(=O)N[C@@H](CCCCN)C(=O)N[C@@H](Cc1ccccc1)C(=O)N[C@@H](CCCCN)C(=O)NCC(=O)N[C@@H](CCCCN)C(N)=O [C12-Pep19-short] (Lauroyl-GKKYRRFRWKFKGK-NH2)
[1]
  MIC value: 4
[3]
  MBC value: 4 µg/mL (≈ 1.94 µM)

## CCCCCCCCCCCCCC(=O)NCC(=O)N[C@@H](CCCCN)C(=O)N[C@@H](CCCCN)C(=O)N[C@@H](Cc1ccc(O)cc1)C(=O)N[C@@H](CCCNC(=N)N)C(=O)N[C@@H](CCCNC(=N)N)C(=O)N[C@@H](Cc1ccccc1)C(=O)N[C@@H](CCCNC(=N)N)C(=O)N[C@@H](Cc1c[nH]c2ccccc12)C(=O)N[C@@H](CCCCN)C(=O)N[C@@H](Cc1ccccc1)C(=O)N[C@@H](CCCCN)C(=O)NCC(=O)N[C@@H](CCCCN)C(N)=O [C14-Pep19-short] (Myristoyl-GKKYRRFRWKFKGK-NH2)
[1]
  MIC value: 8
[3]
  MBC value: 8 µg/mL (≈ 3.82 µM)

## C11-GKKYRRFRWKFKGK [C11-Pep19-short, Pep19-short conjugated at the N-terminus to undecanoic acid (C11:0)]
[1]
  MIC value: 4
[4]; n = 3
  change in number of cfu/mL: only a small decrease in the number of cfu/mL
[4]; 1 × MIC, n=3
  time until all bacteria killed: 4 h
[4]; 2 × MIC, n=3
  time until all bacteria killed: 0.5 h
[4]; [10]
  time until all bacteria killed / no detectable cfu: ≤ 30 min
[4]; 4 × MIC, n = 3
  mode of action: fast and bactericidal mode of action
[5]
  MIC value: 4 µg/mL
[6]
  speed of elimination compared among the peptides: faster excretion from the body
[7]
  solubility in water: high solubility in water
[8]
  MBC value: 4 µg/mL
[3]
  MBC value: 4 µg/mL

## N=C(N)NCCC[C@H](NC(=O)[C@H](Cc1ccc(O)cc1)NC(=O)[C@H](CCCCN)NC(=O)[C@H](CCCCN)NC(=O)[C@H](CS)NC(=O)CN)C(=O)N[C@@H](CCCNC(=N)N)C(=O)N[C@@H](Cc1ccccc1)C(=O)N[C@@H](CCCNC(=N)N)C(=O)N[C@@H](Cc1c[nH]c2ccccc12)C(=O)N[C@@H](CCCCN)C(=O)N[C@@H](Cc1ccccc1)C(=O)N[C@@H](CCCCN)C(=O)NCC(=O)N[C@@H](CCCCN)C(=O)N[C@@H](Cc1ccccc1)C(=O)N[C@@H](Cc1c[nH]c2ccccc12)C(=O)N[C@@H](Cc1ccccc1)C(=O)N[C@@H](Cc1c[nH]c2ccccc12)C(=O)NCC(N)=O [Pep19-2.5, reference compound]
[1]
  MIC value: > 64
[3]
  MBC value: > 64 µg/mL

## GKKYRRFRWKFKGK-NH2 [Pep19-short, shortened variant of Pep19-4LF without hydrophobic moiety, …-NH2]
[1]
  MIC value: 64
  MIC: 64 µg/mL
[9]
  MIC: > 64 µg/mL
[2]
  MIC: > 64 µg/mL
[6]
  speed of elimination compared among the peptides: no difference in the elimination time
[3]
  MBC value: 64 µg/mL

## CCCCCCCCCC(=O)NCC(=O)N[C@@H](CCCCN)C(=O)N[C@@H](CCCCN)C(=O)N[C@@H](Cc1ccc(O)cc1)C(=O)N[C@@H](CCCNC(=N)N)C(=O)N[C@@H](CCCNC(=N)N)C(=O)N[C@@H](Cc1ccccc1)C(=O)N[C@@H](CCCNC(=N)N)C(=O)N[C@@H](Cc1c[nH]c2ccccc12)C(=O)N[C@@H](CCCCN)C(=O)N[C@@H](Cc1ccccc1)C(=O)N[C@@H](CCCCN)C(=O)NCC(=O)N[C@@H](CCCCN)C(N)=O [C10-Pep19-short] (Decanoyl-GKKYRRFRWKFKGK-NH2)
[1]
  MIC value: 4
[3]
  MBC value: 4 µg/mL (≈ 1.96 µM)

## CCCCCCCCCCCCCCCCCC(=O)NCC(=O)N[C@@H](CCCCN)C(=O)N[C@@H](CCCCN)C(=O)N[C@@H](Cc1ccc(O)cc1)C(=O)N[C@@H](CCCNC(=N)N)C(=O)N[C@@H](CCCNC(=N)N)C(=O)N[C@@H](Cc1ccccc1)C(=O)N[C@@H](CCCNC(=N)N)C(=O)N[C@@H](Cc1c[nH]c2ccccc12)C(=O)N[C@@H](CCCCN)C(=O)N[C@@H](Cc1ccccc1)C(=O)N[C@@H](CCCCN)C(=O)NCC(=O)N[C@@H](CCCCN)C(N)=O [C18-Pep19-short] (Stearoyl-GKKYRRFRWKFKGK-NH2)
[1]
  MIC value: > 64
  MIC: higher MIC values
[5]
  MIC value: > 64 µg/mL
[2]
  MIC: higher MIC values
[8]
  MBC value: > 64 µg/mL
[3]
  MBC value: > 64 µg/mL

## bacitracin
[4]; n = 3
  change in number of cfu/mL: only a small decrease in the number of cfu/mL
[4]; 2 × MIC, n=3
  mode of action: bacteriostatic mode of action
[4]; [10]
  time until no detectable cfu: 8 h
[4]; 4 × MIC, n = 3
  mode of action: bactericidal activity

## CCCCCCCC(=O)NCC(=O)N[C@@H](CCCCN)C(=O)N[C@@H](CCCCN)C(=O)N[C@@H](Cc1ccc(O)cc1)C(=O)N[C@@H](CCCNC(=N)N)C(=O)N[C@@H](CCCNC(=N)N)C(=O)N[C@@H](Cc1ccccc1)C(=O)N[C@@H](CCCNC(=N)N)C(=O)N[C@@H](Cc1c[nH]c2ccccc12)C(=O)N[C@@H](CCCCN)C(=O)N[C@@H](Cc1ccccc1)C(=O)N[C@@H](CCCCN)C(=O)NCC(=O)N[C@@H](CCCCN)C(N)=O [C8-Pep19-short] (Octanoyl-GKKYRRFRWKFKGK-NH2)
[1]
  MIC value: 8
[3]
  MBC value: 8 µg/mL (≈ 3.98 µM)
